Test results published in patent US8680148B2, “Metallo-desferrioxamine complexes and their use in the treatment of bacterial infections” (priority 2006, dated 2014).
Where two headings read alike, the source gives them in different places.

How the values were obtained:
Pseudomonas aeruginosa [1] = assay: Minimal inhibitory concentration on planktonic Pseudomonas aeruginosa, 96-well plates; assay type: cell-based; details: low iron medium
Description: The effect of gallium-desferrioxamine on planktonic Pseudomonas aeruginosa was first examined in a low iron medium. […] When in the stationary phase, Pseudomonas aeruginosa is not effectively killed by antibiotics.
(§1) Bacterial strains and culture conditions. Pseudomonas aeruginosa PAO1 or PAO1 derivatives were used for all experiments except where noted. For flow cell biofilm experiments, strains containing the GFP expression vector pMRP9-1 were used. Both flow cell and disc reactor biofilms were grown in 1% Tryptic Soy Broth (TSB) (Becton Dickinson, Sparks, Md.) as were planktonic cultures. All cultures were incubated at 37° C. unless otherwise indicated. For the static biofilm formation assay we used M63 minimal medium supplemented with glucose (0.2%), arginine (0.4%) and MgSO4 (1 mM).
The minimal inhibitory concentrations (MICs) of various agents were determined by using 96-well plates. Each well contained 100 μl of 1% TSB plus test compound. The inoculum was 5×10^5 Pseudomonas aeruginosa cells per well. To test the effect of agents on survival of stationary phase cells, cultures inoculated with 10^5 cells per ml and incubated for 18 h at 37° C. with aeration were used. The 18-h cultures were centrifuged. The pelleted cells were washed twice and suspended in a volume of fresh medium equal to the original culture volume. […] Viability was determined by plating dilutions on LB agar.

[2] = tested on: Pseudomonas aeruginosa biofilm; assay: Static biofilm formation in microtiter dish wells (crystal violet binding); assay type: cell-based; details: 18 h
Experimental: as §1
Pseudomonas aeruginosa biofilms were studied in three different ways. To evaluate gallium-desferrioxamine as a biofilm-blocking agent, the biofilm formation under static growth conditions was measured in microtiter dish wells. Biofilms were grown under static conditions in 96-well microtiter dishes for 18 h at 37° C. in M63 medium with or without added agents as indicated. Attached biomass was stained with crystal violet and the degree of crystal violet staining was measured.
FIG. 2 illustrates the biofilm growth of Pseudomonas aeruginosa cells in polyvinylchloride microtiter dish wells after treatment for 18 hours with desferrioxamine, Ga, gentamicin, or desferrioxamine-Ga. The concentrations used for each compound were 1 μM for DFO, Ga and DFO-Ga, and 0.1 μg/mL for Gm. Attached biofilm biomass was determined by measuring crystal violet binding.

[3] = tested on: Pseudomonas aeruginosa biofilm; assay: Flow cell biofilms, confocal microscopy (GFP, propidium iodide); assay type: cell-based; details: for killing of cells in six-day old biofilm (propidium iodide staining): 24 h
Experimental: as §1
The development of biofilms under a continuous flow of medium was followed in microscope observation chambers. To visualize biofilms grown under a continuous flow of medium, flow cells and confocal microscopy with an incubation temperature of 25° C. were used. An agent was added to the medium at the beginning of an experiment to determine whether the agent prevented biofilm formation. To determine the affect of an agent on mature biofilms, the biofilm was allowed to grow for six days prior to addition of the test compound. To discriminate live and dead cells, propidium iodide (PI, 30 μM, Sigma Chemical Co., St. Louis, Mo.) was used.
FIG. 3 compares 3D-reconstructed confocal microscope images of six-day old biofilms of Pseudomonas aeruginosa cells expressing GFP treated for 24 hours with gentamicin (0.1 μg/mL), desferrioxamine (1 μM), gallium (1 μM), and gallium-desferrioxamine (1 μM).
FIGS. 4-8 compare the survival of P. aeruginosa in a six-day old biofilms stained with propidium iodide under with different treatment.

[4] = ferric iron; cited from earlier work
[5] = trivalent aluminium ions; cited from earlier work
[6] = divalent ions; cited from earlier work
[7] = tested on: stationary phase Pseudomonas aeruginosa cells; assay: Survival of stationary phase Pseudomonas aeruginosa cells (plating on LB agar); assay type: cell-based; details: 24 h
Experimental: The minimal inhibitory concentrations (MICs) of various agents were determined by using 96-well plates. Each well contained 100 μl of 1% TSB plus test compound. The inoculum was 5×10^5 Pseudomonas aeruginosa cells per well. To test the effect of agents on survival of stationary phase cells, cultures inoculated with 10^5 cells per ml and incubated for 18 h at 37° C. with aeration were used. The 18-h cultures were centrifuged. The pelleted cells were washed twice and suspended in a volume of fresh medium equal to the original culture volume. The cells were incubated at 37° C. for an additional 2 h with shaking and then exposed to the test compounds at the indicated concentrations for 24 h. Viability was determined by plating dilutions on LB agar. FIG. 1 illustrates the survival of stationary phase Pseudomonas aeruginosa cells treated for 24 hours with desferrioxamine (DFO), gentamicin (Gm), gallium (Ga), gallium-desferrioxamine (DFO-Ga), DFO and Gm, Ga and Gm, and DFO-Ga and Gm. The concentrations used for each compound were 0.1 mM (shaded) or 1 mM (dark) for DFO, Ga or DFO-Ga and […] for Gm. […] Because gallium-desferrioxamine and gentamicin exert their antimicrobial effects via different mechanisms, the two agents were combined and the combined treatment results in a six-log reduction in viable cells.

[8] = tested on: Pseudomonas aeruginosa biofilm; assay: Spinning disc reactor biofilms, viable cell counts; assay type: cell-based; details: 24 h
Experimental: A spinning disc reactor as a third method was used to study biofilms. The biofilms grown under different conditions were tested and the activity of gallium-desferrioxamine against biofilms grown in a spinning disc reactor under continuous flow with high shear was examined. In this system biofilms are grown under a flow of medium and at high shear forces. After 24 h in a flow of medium, the polycarbonate chips with attached biofilm bacteria were removed from the spinning disc and washed 3 times in PBS. All incubations for spinning disc experiments were at 37° C. These biofilms were then exposed to the indicated agents in water for 24 h. Cells that detached from the biofilm during the treatment were enumerated by plating on LB agar. To estimate the number of remaining attached biofilm cells, the discs were placed in 1 ml PBS and the cells were dispersed by using a tissue homogenizer (Brinkman Homogenizer, Westbury, N.Y.). Viable cell numbers were determined by plating on LB agar. […] Furthermore, when gallium-desferrioxamine and gentamicin are used together, viability is reduced by almost 6 logs, leaving only a few viable cells.

[9] = tested on: P. aeruginosa clinical isolates biofilms; assay: Spinning disc reactor biofilms of 15 clinical isolates; assay type: cell-based, Pseudomonas aeruginosa; details: 24 h
Experimental: To verify that the sensitivities observed with laboratory strain of P. aeruginosa (PAO1) would hold with other clinical isolates of the bacterium, 15 clinical isolates of the same bacterium obtained from CF, eye and wound infected patients were screened. The group of isolates tested included mucoid strains, and strains with a variety of drug resistance profiles. The spinning-disc biofilm reactor system was utilized. In this system biofilms are grown under a flow of medium and at high shear forces. After 24 h in a flow of medium the polycarbonate chips with attached biofilm bacteria were removed from the spinning disc and washed 3 times in PBS. All incubations for spinning disc experiments were at 37° C. These biofilms were then exposed to Gm (50 μg/ml), DFO-Ga (1 mM) or a combination of gallium-desferrioxamine […] in water for 24 h. To estimate the number of remaining attached biofilm cells, we placed the discs in 1 ml PBS and dispersed the cells by using a tissue homogenizer (Brinkman Homogenizer, Westbury, N.Y.). Viable cell numbers were determined by plating on LB agar. […]

[10] = tested on: pvdA-GFP iron starvation promoter fusion; assay: Iron starvation reporter (pvdA-GFP) fluorescence in PAO1; assay type: cell-based, Pseudomonas aeruginosa; details: 1 mM, 1 h at 37° C.
Experimental: To study the effect of DFO-Ga on iron regulation in the cell, a P. aeruginosa PAO1 strain-carrying GFP fused to an iron starvation promoter (pvdA-GFP) was constructed. The promoter is induced under iron limitation. Free living PAO1 carrying pvdA-GFP fusion, i.e., an iron starvation reporter fusion, 10^9 cell/ml in 1% TSB were exposed to […] Ga (1 mM), DFO (1 mM), or DFO-Ga (1 mM) for 1 h at 37° C.

[11] = tested on: Staphylococcus aureus (MRSA strain) biofilm; assay: Spinning disc reactor biofilms of MRSA S. aureus; assay type: cell-based; details: 1 mM, 24 h
Experimental: The effect of gallium-desferrioxamine against the drug resistant bacterial was investigated. The efficacy of DFO-Ga against common biofilm pathogens Staphylococcus aureus (MRSA strain) and Escherichia coli was examined. Biofilms were grown using the spinning disc reactor system as above. Spinning disc reactor biofilms with E. coli or MRSA S. aureus were treated for 24 h. The concentration of DFO-Ga in both treatments was (1 mM). In the E. coli treatment, the concentration of Gm was 10 μg/ml and for the combination of DFO-Ga (1 mM) and Gm (10 μg/ml).
As shown FIG. 12B, DFO-Ga was able to reduce the viable Staphylococcus aureus biofilm bacteria by approximately 3 log units.

[12] = systemic treatment, ischemia and reperfusion; cited from earlier work
Pseudomonas aeruginosa [13] = assay: Rabbit cornea infection (keratitis) with P. aeruginosa, topical treatment; assay type: in vivo; details: 0.5% gentamicin eye drops
[14] = topical application, alkali burn; cited from earlier work

Molecule: CC(=O)N(O)CCCCCNC(=O)CCC(=O)N(O)CCCCCNC(=O)CCC(=O)N(O)CCCCCN [desferrioxamine]
- growth inhibition (highest concentration without inhibition) (Pseudomonas aeruginosa [1]): > 1 mM
- biofilm formation ([2]; 1 μM): does not affect biofilm formation
- killing of cells in six-day old biofilm (propidium iodide staining) ([3]; 1 mM): does not appear to kill cells in mushroom-like structures
- complex formation constant [4]: 10^31
- complex formation constant [5]: 10^25
- complex formation constant [6]: ≤ 10^14

Molecule: CC(=O)N([O-])CCCCCNC(=O)CCC(=O)N([O-])CCCCCNC(=O)CCC(=O)N([O-])CCCCCN.[Ga+3] [gallium-desferrioxamine]
- minimal inhibitory concentration (MIC) (Pseudomonas aeruginosa [1]): 32 µM
- killing relative to gentamicin ([7]; 1 mM, versus gentamicin 10 μg per ml): 10-100 times
- biofilm formation ([2]; 1 μM): effectively blocked
- biofilm formation under continuous flow ([3]; 1 μM, flow cell): completely blocks biofilm formation
- killing of cells in six-day old biofilm (propidium iodide staining) ([3]; 1 mM): causes death of cells throughout the mushroom-like structures
- decrease in cell counts ([8]; 1 mM): 3-4 log
- log killing ([9]; DFO-Ga 1 mM): 3.02 log
- induction in relative fluorescence compared to non-treated controls [10]: four
- reduction of viable Staphylococcus aureus biofilm bacteria [11]: approximately 3 log units
- damage to the retina [12]: reduced damage to the retina

Molecule: [Ga] [gallium]
- biofilm formation ([2]; 1 μM): effectively blocked
- killing of cells in six-day old biofilm (propidium iodide staining) ([3]; 1 mM): killing of cells in the outer regions of the biofilm only
- reduction in fluorescence [10]: two

Molecule: gentamicin
- reduction of viability ([7]; gentamicin 10 μg per ml): three
- biofilm formation ([2]; 0.1 μg per ml): does not affect biofilm formation
- killing of cells in six-day old biofilm (propidium iodide staining) ([3]; 50 μg/ml): killing of cells in the outer regions of the biofilm only
- decrease in cell counts ([8]; 50 μg/mL): 2 log
- log killing ([9]; Gm 50 μg/ml): 0.95 log
- scarring (Pseudomonas aeruginosa [13]): significant scarring persists
- time to resolution of the infection (Pseudomonas aeruginosa [13]): ≤ 120 h

Molecule: zinc-desferrioxamine
- damage to the retina [12]: reduced damage to the retina
- corneal damage [14]: reduced corneal damage
